Data published in patent US12275744B2, “Pyrazole and imidazole derivatives, compositions and methods as orexin antagonists” (HAGER BIOSCIENCES, LLC, priority 2019, dated 2025).
pIC50: −log10 of the molar value.

How the values were obtained:
[1] = molecular target: T1, human orexin-2 receptor (Homo sapiens, UniProt O43614); assay: Intracellular calcium measurement (FLIPR), antagonism of orexin-A response in CHO cells expressing OX2R; conditions: for inhibition at 1 µM: CHO, read-out: % Inhibition of OX2R @1 uM compound
T1 sequence (O43614 1-444): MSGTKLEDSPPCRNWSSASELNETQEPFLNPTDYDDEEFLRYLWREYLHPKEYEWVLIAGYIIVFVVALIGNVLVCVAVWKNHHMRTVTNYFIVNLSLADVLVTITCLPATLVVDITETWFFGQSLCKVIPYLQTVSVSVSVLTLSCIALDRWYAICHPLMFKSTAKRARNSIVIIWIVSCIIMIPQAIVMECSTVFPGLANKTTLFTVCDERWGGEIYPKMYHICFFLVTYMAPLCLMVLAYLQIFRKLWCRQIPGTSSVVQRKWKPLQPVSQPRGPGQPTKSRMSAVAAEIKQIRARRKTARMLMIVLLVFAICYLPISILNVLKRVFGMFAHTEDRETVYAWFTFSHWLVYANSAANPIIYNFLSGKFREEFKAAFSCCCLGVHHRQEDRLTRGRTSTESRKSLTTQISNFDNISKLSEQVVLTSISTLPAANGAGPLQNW
Description: (§1) In Vitro Assay: Intracellular Calcium Measurements:
(§2) Chinese hamster ovary (CHO) cells expressing the human orexin-1 receptor and the human orexin-2 receptor, respectively, are grown in culture medium (Ham F-12 with L-Glutamine) containing 300 μg/mL G418, 100 U/mL penicillin, 100 μg/mL streptomycin and 10% heat inactivated fetal calf serum (FCS). The cells are seeded at 20,000 cells/well into 384-well black clear bottom sterile plates (Greiner). The seeded plates are incubated overnight at 37° C. in 5% CO2.
(§3) Within the Fluorescent Imaging Plate Reader (FLIPR Tetra, Molecular Devices), antagonists are added to the plate in a volume of 10 μL/well, incubated for 120 min and finally 10 μL/well of agonist is added. Fluorescence is measured for each well at 1 second intervals, and the height of each fluorescence peak is compared to the height of the fluorescence peak-induced by 3 nM orexin-A with vehicle in place of antagonist. […] Optimized conditions were achieved by adjustment of pipetting speed and cell splitting regime. The calculated IC50 values may fluctuate depending on the daily cellular assay performance.

[2] = molecular target: T2, human orexin-1 receptor (Homo sapiens, UniProt O43613); assay: Intracellular calcium measurement (FLIPR), antagonism of orexin-A response in CHO cells expressing OX1R; conditions: for inhibition at 1 µM: CHO, read-out: % Inhibition of OX1R @1 uM compound
T2 sequence (O43613 1-425): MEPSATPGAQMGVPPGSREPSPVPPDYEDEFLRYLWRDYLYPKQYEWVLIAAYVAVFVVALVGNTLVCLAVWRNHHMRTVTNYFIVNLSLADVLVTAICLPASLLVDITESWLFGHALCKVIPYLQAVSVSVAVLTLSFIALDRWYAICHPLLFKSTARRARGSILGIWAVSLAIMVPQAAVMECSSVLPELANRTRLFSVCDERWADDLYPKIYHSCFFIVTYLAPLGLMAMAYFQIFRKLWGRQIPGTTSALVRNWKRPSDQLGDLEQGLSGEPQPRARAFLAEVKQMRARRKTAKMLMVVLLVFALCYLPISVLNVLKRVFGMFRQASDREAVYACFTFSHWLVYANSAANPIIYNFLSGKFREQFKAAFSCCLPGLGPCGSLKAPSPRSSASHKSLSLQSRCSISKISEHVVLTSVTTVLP
Description: as §1, §2, §3

[3] = molecular target: T3, OX1R (Homo sapiens, UniProt O43613); conditions: relative to Orexin B; Kodadek and Cai 2010; cited from earlier work
T3 sequence (O43613 1-425): T2 sequence (O43613 1-425)

Compound	inhibition at 1 µM [1] [%]	inhibition at 1 µM [2] [%]	pIC50 [2]	Kb [2] [nM]	pIC50 [1]	Kb [1] [nM]	affinity for OX1R, higher than Orexin B [3]
CCc1cnc(OC[C@@H]2CCCN2C(=O)c2c(-c3ccccc3)nn3c2COCC3)nc1 [Example 16]	7.77	0.59	–	–	–	–	–
O=C(c1c(-c2ccccc2)nn2c1COCC2)N1CCC[C@H]1CNc1ccc(C(F)(F)F)cn1 [Example 2]	20.9	62.8	6.91	26	–	–	–
C[C@@H]1CCCN(C(=O)c2c(-c3ccccc3)nc3ccccn23)[C@@H]1CNc1ccc(C(F)(F)F)cn1 [Example 8]	13.8	86.1	8.30	1	–	–	–
CCc1cnc(OC[C@@H]2CCCN2C(=O)c2c(-c3ccccc3)nc3ccccn23)nc1 [Example 19]	11.2	-10.8	–	–	–	–	–
O=C(c1c(-c2ccccc2)nn2ccccc12)N1CCC[C@H]1COc1ccc(C(F)(F)F)cn1 [Example 20]	49.6	84.9	7.96	2	–	–	–
O=C(c1c(-c2ccccc2)nn2c1COCC2)N1CCC[C@H]1Cn1ccc(-c2ccccc2)n1 [Example 1]	28.2	69.7	7.48	7	–	–	–
Orexin A: excitatory hypothalamic neuropeptide, a 33 amino acid peptide; endogenous ligand of OX1R and OX2R (QPLPDCCRQKTCSCRLYELLHGAGNHAAGILTL; Orexin-A; UniProt O43612 34-66, looked up)	–	–	–	–	–	–	about 100 fold
O=C(c1c(-c2ccccc2)nc2ccccn12)N1CCC[C@H]1CNc1ccc(C(F)(F)F)cn1 [Example 11]	21.6	67.1	7.41	8	–	–	–
O=C(c1c(-c2ccccc2)nc2ccccn12)N1CCC[C@H]1COc1ccc(C(F)(F)F)cn1 [Example 18]	29.6	70	6.53	62	–	–	–
CCc1cnc(NC[C@@H]2[C@H](C)CCCN2C(=O)c2c(-c3ccccc3)nn3ccccc23)nc1 [Example 4]	12.8	85.7	–	–	–	–	–

Second part, led by results:

inhibition at 1 µM [1] [%]	inhibition at 1 µM [2] [%]	pIC50 [2]	Kb [2] [nM]	pIC50 [1]	Kb [1] [nM]	Compound	affinity for OX1R, higher than Orexin B [3]
18.3	14.8	–	–	–	–	CCc1cnc(NC[C@@H]2CCCN2C(=O)c2c(-c3ccccc3)nc3ccccn23)nc1 [Example 14]	–
38.5	87.6	8.10	1.7	–	–	C[C@@H]1CCCN(C(=O)c2c(-c3ccccc3)nn3ccccc23)[C@@H]1CNc1ccc(C(F)(F)F)cn1 [Example 6]	–
37.3	54.1	6.75	37	–	–	CCc1cnc(NC[C@@H]2CCCN2C(=O)c2c(-c3ccccc3)nn3ccccc23)nc1 [Example 15]	–
46.1	88.9	8.70	0.5	–	–	O=C(c1c(-c2ccccc2)nc2ccccn12)N1CCC[C@H]1Cn1ccc(-c2ccccc2)n1 [Example 12]	–
78.5	96.6	–	–	7.15	9	O=C(c1c(-c2ccccc2)nn2ccccc12)N1CCC[C@H]1Cn1ccc(-c2ccccc2)n1 [Example 13]	–
-2.51	76.8	7.23	12	–	–	CCc1cnc(NC[C@@H]2[C@H](C)CCCN2C(=O)c2c(-c3ccccc3)nc3ccccn23)nc1 [Example 9]	–
43.5	86.9	8.46	0.7	–	–	O=C(c1c(-c2ccccc2)nn2ccccc12)N1CCC[C@H]1CNc1ccc(C(F)(F)F)cn1 [Example 10]	–
0.4	71	6.87	29	–	–	CCc1cnc(NC[C@@H]2[C@H](C)CCCN2C(=O)c2c(-c3ccccc3)nn3c2COCC3)nc1 [Example 5]	–
14.2	14	–	–	–	–	CCc1cnc(NC[C@@H]2CCCN2C(=O)c2c(-c3ccccc3)nn3c2COCC3)nc1 [Example 3]	–
2.44	80.1	8.05	2	–	–	C[C@@H]1CCCN(C(=O)c2c(-c3ccccc3)nn3c2COCC3)[C@@H]1CNc1ccc(C(F)(F)F)cn1 [Example 7]	–
26.9	38.8	–	–	–	–	CCc1cnc(OC[C@@H]2CCCN2C(=O)c2c(-c3ccccc3)nn3ccccc23)nc1 [Example 21]	–
5.78	45.1	–	–	–	–	O=C(c1c(-c2ccccc2)nn2c1COCC2)N1CCC[C@H]1COc1ccc(C(F)(F)F)cn1 [Example 17]	–
